Measured values: patent US4054734A, “Amphotericin complexes containing citric acid and calcium” (priority 1976, dated 1977)

Tests used:
solubility in methanol = format: physicochemical
Protocol: The complexes of the present invention are less soluble in methanol than amphotericin B. Forty mg of the complexes of the present invention are soluble in 750 ml of methanol, whereas 100 mg of amphotericin B are soluble in 750 ml of methanol.

[1] = solubility in methanol adjusted to pH 9.5 with triethylamine; format: physicochemical; conditions: pH adjusted to 9.5 with triethylamine

## C[C@@H]1[C@H](O)[C@@H](C)/C=C/C=C/C=C/C=C/C=C/C=C/C=C/[C@H](O[C@@H]2O[C@H](C)[C@@H](O)[C@H](N)[C@@H]2O)C[C@@H]2O[C@](O)(C[C@@H](O)C[C@@H](O)[C@H](O)CC[C@@H](O)C[C@@H](O)CC(=O)O[C@H]1C)C[C@H](O)[C@H]2C(=O)O [amphotericin B]
Solubility in methanol; 100 mg in 750 ml of methanol
  solubility in methanol (in words): completely soluble
Solubility in methanol; in 750 ml of methanol
  amount soluble in methanol: 100 mg
[1]; 100 mg in 80 ml of methanol
  solubility in methanol at pH 9.5 (in words): completely soluble

## Amphotericin B-Calcium-Oxalic Acid Complex [Example 1]
Solubility in methanol; 100 mg added to 750 ml of methanol
  extent of solubilization in methanol: 40%
[1]; 100 mg added to 80 ml of methanol
  extent of solubility in methanol at pH 9.5: 35%
